Assay results as given in US8445492B2, “Method for inhibiting growth of cancer cells and cell telomere and diseases of cell proliferation by using heteroannelated anthraquinone derivative compounds” (National Defense Medical Center, priority 2008, dated 2013).
Like-named read-outs stand apart in the source and are kept apart here.

Experiments:
[1] = test system: RPMI-8226; assay: cells; conditions: Homo sapiens
[2] = test system: K-562
[3] = test system: LOX IMV1; assay: in vitro test at 1.0×10^−5 M, Skin cancer cell; format: cell-based; conditions: 1.0×10^−5 molal concentration (M)
[4] = test system: MOLT-4; assay: cells; conditions: Homo sapiens
[5] = test system: DU-145; assay: cells; conditions: Homo sapiens
[6] = test system: HOP-92; assay: cells; conditions: Homo sapiens
[7] = test system: NCI-H460
[8] = test system: EKVX
[9] = test system: A549/ATCC
[10] = test system: different cancer cell lines; assay: in vitro test at 1.0×10^−5 M, summary over the cell lines; format: cell-based; conditions: 1.0×10^−5 molal concentration (M)
[11] = test system: CCRF-CEM
[12] = test system: HCC-2998; assay: in vitro test at 1.0×10^−5 M, Colorectal cancer cell; format: cell-based; conditions: 1.0×10^−5 molal concentration (M)
[13] = test system: NCI-H226
[14] = test system: HL-60(TB); assay: cells; conditions: Homo sapiens
[15] = test system: PC-3; assay: cells; conditions: Homo sapiens
[16] = test system: HOP-62
[17] = test system: K-562; assay: cells; conditions: Homo sapiens
[18] = test system: NCI-H226; assay: cells; conditions: Homo sapiens
[19] = test system: EKVX; assay: cells; conditions: Homo sapiens
[20] = test system: NCI-H23
[21] = test system: MOLT-4
[22] = test system: HS 578T; assay: in vitro test at 1.0×10^−5 M, Breast cancer cell; format: cell-based; conditions: 1.0×10^−5 molal concentration (M)
[23] = test system: HOP-62; assay: cells; conditions: Homo sapiens
[24] = test system: CCRF-CEM; assay: cells; conditions: Homo sapiens
[25] = test system: RPMI-8226
[26] = test system: NCI-H460; assay: cells; conditions: Homo sapiens
[27] = test system: NCI-H522
[28] = test system: HOP-62; assay: in vitro test at 1.0×10^−5 M, Non-small cell lung cancer cell; format: cell-based; conditions: 1.0×10^−5 molal concentration (M)
[29] = test system: DU-145
[30] = test system: PC-3
[31] = test system: NCI-H23; assay: cells; conditions: Homo sapiens

O=C1c2ccccc2C(=O)c2c1ccc1nsnc21 [No. 22, Anthra[2,1-c][1,2,5]thiadiazole-6,11-dione]
GI50 ([1]; RPMI-8226): 1.53 µM | CC50 ([1]; RPMI-8226, read-out: LC50): > 100 µM | TGI ([2]; K-562): 4.92E−5 | Percent Growth ([2]; Log10 Concentration −4.0): −8% | Percent Growth ([2]; Log10 Concentration −5.0): 19% | Percent Growth ([2]; Log10 Concentration −6.0): 83% | Percent Growth ([2]; Log10 Concentration −7.0): 96% | Percent Growth ([2]; Log10 Concentration −8.0): 101% | inhibition effect on cancer cell line (Table 2 value) [3]: −50.6 | GI50 ([4]; MOLT-4): 1.59 µM | CC50 ([4]; MOLT-4, read-out: LC50): > 100 µM | GI50 ([5]; DU-145): 7.41 µM | CC50 ([5]; DU-145, read-out: LC50): 44.2 µM | GI50 ([6]; HOP-92): 2.91 µM | CC50 ([6]; HOP-92, read-out: LC50): > 100 µM | Percent Growth ([7]; Log10 Concentration −4.0): −58% | Percent Growth ([7]; Log10 Concentration −5.0): −53% | Percent Growth ([7]; Log10 Concentration −6.0): 87% | Percent Growth ([7]; Log10 Concentration −7.0): 97% | Percent Growth ([7]; Log10 Concentration −8.0): 100% | TGI ([7]; NCI-H460): 4.19E−6 | TGI ([8]; EKVX): 7.03E−6 | Percent Growth ([8]; Log10 Concentration −4.0): −62% | Percent Growth ([8]; Log10 Concentration −5.0): −15% | Percent Growth ([8]; Log10 Concentration −6.0): 84% | Percent Growth ([8]; Log10 Concentration −7.0): 89% | Percent Growth ([8]; Log10 Concentration −8.0): 96% | TGI ([9]; A549/ATCC): 5.94E−6 | Percent Growth ([9]; Log10 Concentration −4.0): −18% | Percent Growth ([9]; Log10 Concentration −5.0): −27% | Percent Growth ([9]; Log10 Concentration −6.0): 92% | Percent Growth ([9]; Log10 Concentration −7.0): 93% | Percent Growth ([9]; Log10 Concentration −8.0): 104% | Mean [10]: 2.68 | TGI ([11]; CCRF-CEM): >1.00E−4 | Percent Growth ([11]; Log10 Concentration −4.0): 2% | Percent Growth ([11]; Log10 Concentration −5.0): 2% | Percent Growth ([11]; Log10 Concentration −6.0): 74% | Percent Growth ([11]; Log10 Concentration −7.0): 90% | Percent Growth ([11]; Log10 Concentration −8.0): 97% | inhibition effect on cancer cell line (Table 2 value) [12]: −50.00 | Percent Growth ([13]; Log10 Concentration −4.0): −5% | Percent Growth ([13]; Log10 Concentration −5.0): 63% | Percent Growth ([13]; Log10 Concentration −6.0): 75% | Percent Growth ([13]; Log10 Concentration −7.0): 95% | Percent Growth ([13]; Log10 Concentration −8.0): 97% | TGI ([13]; NCI-H226): 8.53E−5 | GI50 ([14]; HL-60): 2.14 µM | CC50 ([14]; HL-60, read-out: LC50): > 100 µM | GI50 ([15]; PC-3): 3.03 µM | CC50 ([15]; PC-3, read-out: LC50): > 100 µM | TGI ([16]; HOP-62): 1.21E−5 | Percent Growth ([16]; Log10 Concentration −4.0): −49% | Percent Growth ([16]; Log10 Concentration −5.0): 4% | Percent Growth ([16]; Log10 Concentration −6.0): 107% | Percent Growth ([16]; Log10 Concentration −7.0): 107% | Percent Growth ([16]; Log10 Concentration −8.0): 107% | GI50 ([17]; K562): 3.23 µM | CC50 ([17]; K562, read-out: LC50): > 100 µM | GI50 ([18]; NCI-H226): 15.6 µM | CC50 ([18]; NCI-H226, read-out: LC50): > 100 µM | GI50 [19]: 2.19 µM | CC50 ([19]; read-out: LC50): 56.5 µM | Percent Growth ([20]; Log10 Concentration −4.0): −35% | Percent Growth ([20]; Log10 Concentration −5.0): −37% | Percent Growth ([20]; Log10 Concentration −6.0): 46% | Percent Growth ([20]; Log10 Concentration −7.0): 91% | Percent Growth ([20]; Log10 Concentration −8.0): 101% | TGI ([20]; NCI-H23): 3.59E−6 | Percent Growth ([21]; Log10 Concentration −4.0): −38% | Percent Growth ([21]; Log10 Concentration −5.0): −40% | Percent Growth ([21]; Log10 Concentration −6.0): 73% | Percent Growth ([21]; Log10 Concentration −7.0): 99% | Percent Growth ([21]; Log10 Concentration −8.0): 97% | TGI ([21]; MOLT-4): 4.43E−6 | inhibition effect on cancer cell line (Table 2 value) [22]: −7.40 | GI50 ([23]; HOP-62): 3.59 µM | CC50 ([23]; HOP-62, read-out: LC50): > 100 µM | GI50 [24]: 2.18 µM | CC50 ([24]; read-out: LC50): > 100 µM | Percent Growth ([25]; Log10 Concentration −4.0): −20% | Percent Growth ([25]; Log10 Concentration −6.0): 61% | Percent Growth ([25]; Log10 Concentration −7.0): 94% | Percent Growth ([25]; Log10 Concentration −8.0): 100% | TGI ([25]; RPMI-8226): 9.91E−6 | GI50 ([26]; NCI-H460): 1.84 µM | CC50 ([26]; NCI-H460, read-out: LC50): 9.54 µM | Percent Growth ([27]; Log10 Concentration −4.0): −18% | Percent Growth ([27]; Log10 Concentration −5.0): 6% | Percent Growth ([27]; Log10 Concentration −6.0): 90% | Percent Growth ([27]; Log10 Concentration −7.0): 103% | Percent Growth ([27]; Log10 Concentration −8.0): 103% | TGI ([27]; NCI-H522): 1.78E−5 | inhibition effect on cancer cell line (Table 2 value) [28]: −100.00 | TGI ([29]; DU-145): 1.95E−5 | Percent Growth ([29]; Log10 Concentration −4.0): −100% | Percent Growth ([29]; Log10 Concentration −5.0): 41% | Percent Growth ([29]; Log10 Concentration −6.0): 110% | Percent Growth ([29]; Log10 Concentration −7.0): 114% | Percent Growth ([29]; Log10 Concentration −8.0): 110% | Percent Growth ([30]; Log10 Concentration −4.0): 4% | Percent Growth ([30]; Log10 Concentration −5.0): 11% | Percent Growth ([30]; Log10 Concentration −6.0): 86% | Percent Growth ([30]; Log10 Concentration −7.0): 92% | Percent Growth ([30]; Log10 Concentration −8.0): 96% | TGI ([30]; PC-3): >1.00E−4 | GI50 ([31]; NCI-H23): 0.802 µM | CC50 ([31]; NCI-H23, read-out: LC50): > 100 µM
